# Assay results: ChEMBL document CHEMBL4406807, “Discovery of 3,4,6-Trisubstituted Piperidine Derivatives as Orally Active, Low hERG Blocking Akt Inhibitors via Conformational Restriction and Structure-Based Design” (J Med Chem, 2019)
# Tests used:
# OVCAR-8 = experiment: Antiproliferative activity against human OVCAR8 cells; type: functional, cell-based
# [1] = target: RAC-alpha serine/threonine-protein kinase (Homo sapiens, UniProt P31749)
# Description: Inhibition of human Akt1 expressed in Escherichia coli using STK Substrate 2-biotin as substrate incubated for 1 hr by HTRF assay
# HCT-116 = experiment: cells; details: Homo sapiens, HCT-116, 72 h
# hERG (KCNH2) = hERG (KCNH2) (Homo sapiens, UniProt Q12809); experiment: Inhibition of ERG in human HEK293 cells at 3 uM at -80 mV holding potential by whole-cell patch clamp assay relative to control; type: cell-based; details: HEK293 cells expressing ERG
# LNCaP = experiment: Antiproliferative activity against human LNCAP cells; type: functional, cell-based
# Sequence of RAC-alpha serine/threonine-protein kinase (P31749 whole entry): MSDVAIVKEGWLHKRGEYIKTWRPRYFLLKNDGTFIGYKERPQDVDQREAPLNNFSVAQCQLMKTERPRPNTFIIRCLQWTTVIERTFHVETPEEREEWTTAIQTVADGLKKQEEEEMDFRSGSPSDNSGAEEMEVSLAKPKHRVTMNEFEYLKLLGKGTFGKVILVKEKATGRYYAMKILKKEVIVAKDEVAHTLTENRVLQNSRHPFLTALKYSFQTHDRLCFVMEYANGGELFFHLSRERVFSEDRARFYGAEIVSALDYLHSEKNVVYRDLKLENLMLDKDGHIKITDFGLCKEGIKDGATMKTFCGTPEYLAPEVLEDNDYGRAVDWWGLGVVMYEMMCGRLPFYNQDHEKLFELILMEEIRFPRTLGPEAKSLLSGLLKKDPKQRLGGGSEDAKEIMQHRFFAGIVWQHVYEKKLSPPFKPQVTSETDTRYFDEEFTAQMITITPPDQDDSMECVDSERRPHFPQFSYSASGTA
# Sequence of hERG (KCNH2) (Q12809 whole entry): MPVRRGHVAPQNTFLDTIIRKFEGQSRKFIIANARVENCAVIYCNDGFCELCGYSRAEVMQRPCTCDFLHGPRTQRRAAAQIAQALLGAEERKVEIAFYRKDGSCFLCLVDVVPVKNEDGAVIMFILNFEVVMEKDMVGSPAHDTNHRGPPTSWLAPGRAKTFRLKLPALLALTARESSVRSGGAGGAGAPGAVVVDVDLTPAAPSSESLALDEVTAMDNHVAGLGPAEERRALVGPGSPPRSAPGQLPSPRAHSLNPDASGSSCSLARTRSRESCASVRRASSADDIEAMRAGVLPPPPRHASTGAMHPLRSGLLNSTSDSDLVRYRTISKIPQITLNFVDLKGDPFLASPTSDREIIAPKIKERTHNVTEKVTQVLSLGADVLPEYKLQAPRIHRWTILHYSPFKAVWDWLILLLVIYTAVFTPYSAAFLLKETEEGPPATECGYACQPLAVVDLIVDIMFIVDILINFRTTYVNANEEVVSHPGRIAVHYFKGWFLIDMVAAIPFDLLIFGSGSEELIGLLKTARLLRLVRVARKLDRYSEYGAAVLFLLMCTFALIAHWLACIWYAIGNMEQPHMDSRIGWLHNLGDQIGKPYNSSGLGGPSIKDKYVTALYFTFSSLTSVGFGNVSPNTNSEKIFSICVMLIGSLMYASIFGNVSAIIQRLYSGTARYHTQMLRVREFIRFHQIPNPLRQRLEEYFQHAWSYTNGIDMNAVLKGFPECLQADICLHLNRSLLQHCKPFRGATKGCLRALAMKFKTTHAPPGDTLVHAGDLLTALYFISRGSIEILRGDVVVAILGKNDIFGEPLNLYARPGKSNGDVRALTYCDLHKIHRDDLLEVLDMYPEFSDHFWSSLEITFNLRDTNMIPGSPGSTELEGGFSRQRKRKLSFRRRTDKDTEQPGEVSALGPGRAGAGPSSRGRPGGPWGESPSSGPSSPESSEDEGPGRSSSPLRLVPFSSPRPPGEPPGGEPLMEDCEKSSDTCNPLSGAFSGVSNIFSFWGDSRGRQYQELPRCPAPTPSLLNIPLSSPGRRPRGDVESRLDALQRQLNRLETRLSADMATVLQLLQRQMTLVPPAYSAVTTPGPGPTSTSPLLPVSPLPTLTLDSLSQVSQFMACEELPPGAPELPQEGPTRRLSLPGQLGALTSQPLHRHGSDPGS
IC50 (OVCAR-8),IC50 [1],IC50 (HCT-116),IC50 (LNCaP),Compound,inhibition at 3 µM (hERG (KCNH2))
2110 nM,57.7 nM,24200 nM,,Cn1nccc1-c1ccc(C(=O)N[C@@H]2CNCC[C@H]2c2ccc(F)c(F)c2)cn1,
120 nM,8 nM,390 nM,,Cn1ncc(Cl)c1-c1cc(C(=O)N[C@@H]2CNCC[C@H]2c2cccc(C(F)(F)F)c2)oc1Cl,
5120 nM,1.94 nM,4020 nM,640 nM,Cn1ncc(Cl)c1-c1cc(C(=O)N[C@@H]2CN[C@H](CC(=O)O)C[C@H]2c2ccc(Cl)c(Cl)c2)oc1Cl,9.1%
2180 nM,27.3 nM,9880 nM,,Cn1ncc(Cl)c1-c1ccc(C(=O)N[C@@H]2CNCC[C@H]2c2ccc(F)c(F)c2)cc1,
2900 nM,73.5 nM,22200 nM,,Cn1ncc(Br)c1-c1ccc(C(=O)N[C@@H]2CNCC[C@H]2c2ccc(F)c(F)c2)cc1,
5820 nM,72.3 nM,,,Cn1ncc(Cl)c1-c1ccc(C(=O)N[C@@H]2CNCC[C@H]2c2cccc(F)c2)cc1,10.7%
1400 nM,5.1 nM,990 nM,,Cn1ncc(Cl)c1-c1coc(C(=O)N[C@@H]2CNCC[C@H]2c2ccc(F)c(F)c2)c1,
,1570 nM,,,Cn1ncc(Cl)c1-c1coc(C(=O)NC2CNCC2c2ccc(F)c(F)c2)c1 (racemic),
6200 nM,212 nM,3040 nM,,Cn1cc(-c2c(Cl)cnn2C)cc1C(=O)N[C@@H]1CNCC[C@H]1c1ccc(Cl)cc1,
610 nM,7.98 nM,430 nM,80 nM,Cn1ncc(Cl)c1-c1cc(C(=O)N[C@@H]2CN[C@H](CC(=O)NC3CCC3)C[C@H]2c2ccc(Cl)c(Cl)c2)oc1Cl,
4920 nM,199 nM,7420 nM,,Cn1ncc(Br)c1-c1cc(C(=O)N[C@@H]2CNCC[C@H]2c2ccc(Cl)cc2)n(C)c1Br,
6050 nM,40 nM,11700 nM,,Cn1ncc(Cl)c1-c1oc(C(=O)N[C@@H]2CNCC[C@H]2c2ccc(Cl)cc2)cc1Br,
5000 nM,50.3 nM,21800 nM,,O=C(N[C@@H]1CNCC[C@H]1c1ccc(Cl)cc1)c1ccc(-c2cn[nH]c2)o1,
6120 nM,215 nM,34700 nM,,Cn1ncc(Cl)c1-c1ccc(C(=O)N[C@@H]2CNCC[C@H]2c2ccc(F)c(F)c2)cn1,
3500 nM,29.4 nM,1560 nM,,Cn1nccc1-c1coc(C(=O)N[C@@H]2CNCC[C@H]2c2ccc(Cl)cc2)c1,
900 nM,127 nM,1050 nM,,Cn1ncc(Cl)c1-c1cc(C(=O)N[C@H]2CNCC[C@@H]2c2ccc(C(F)(F)F)cc2)oc1Cl,
24000 nM,> 1000 nM,23000 nM,,O=C(N[C@@H]1CNCC[C@H]1c1ccc(Cl)cc1)c1ccc(-c2ncnc3c2CCC3O)s1 (stereo not given in full),
3460 nM,104 nM,4720 nM,,Cn1ncc(Cl)c1-c1ccc(C(=O)N[C@@H]2CNCC[C@H]2c2cccc(F)c2)nc1,
1620 nM,10.4 nM,1020 nM,,CCC[C@@H]1C[C@@H](c2ccc(Cl)c(Cl)c2)[C@H](NC(=O)c2cc(-c3c(Cl)cnn3C)c(Cl)o2)CN1,85.3%
,7.2 nM,,,Cn1ncc(Cl)c1-c1cc(C(=O)NC2CNCCC2c2ccc(C(F)(F)F)cc2)oc1Cl (stereo not given),

# Continued, compound first:
Compound,IC50 (OVCAR-8),IC50 [1],IC50 (HCT-116),IC50 (LNCaP),inhibition at 3 µM (hERG (KCNH2))
Cn1ncc(Cl)c1-c1cc(C(=O)N[C@@H]2CNCC[C@H]2c2ccc(Cl)cc2)oc1Cl,1320 nM,17.3 nM,1870 nM,,
Cn1ncc(Br)c1-c1coc(C(=O)NC2CNCC2c2ccc(F)c(F)c2)c1 (racemic),,3650 nM,,,
Cn1ncc(Cl)c1-c1cc(C(=O)N[C@@H]2CNCC[C@@H]2c2ccc(F)c(F)c2)oc1Cl,,2.5 nM,,,
CNc1cc(-c2ccc(C(=O)N[C@@H]3CNCC[C@H]3c3ccc(Cl)cc3)o2)ncn1,12300 nM,529 nM,37100 nM,,
Cn1ncc(Cl)c1-c1cc(C(=O)N[C@@H]2CN[C@H](CCCO)C[C@H]2c2ccc(Cl)c(Cl)c2)oc1Cl,600 nM,2.56 nM,510 nM,210 nM,72%
Cn1ncc(Cl)c1-c1cc(C(=O)NC2CNCCC2c2ccccc2)oc1Cl (stereo not given),,17.6 nM,,,
Cn1ncc(Cl)c1-c1cc(C(=O)N[C@H]2CNCC[C@@H]2c2ccc(F)c(F)c2)oc1Cl,490 nM,51.2 nM,1090 nM,,
Cn1ncc(Cl)c1-c1cc(C(=O)NC2CNCCC2c2ccc(Cl)cc2)oc1Cl (stereo not given),,17.3 nM,,,
Cn1ncc(Cl)c1-c1cc(C(=O)N[C@@H]2CNCC[C@H]2c2cccc(F)c2)sc1Cl,8990 nM,102 nM,9430 nM,,
C=CC[C@@H]1C[C@@H](c2ccc(Cl)c(Cl)c2)[C@H](NC(=O)c2cc(-c3c(Cl)cnn3C)c(Cl)o2)CN1,990 nM,12.4 nM,780 nM,160 nM,
Cn1ncc(Br)c1-c1coc(C(=O)N[C@@H]2CNCC[C@H]2c2ccc(Cl)cc2)c1,9010 nM,35.6 nM,2310 nM,,
Cn1nccc1-c1coc(C(=O)NC2CNCCC2c2ccc(F)c(F)c2)c1 (racemic),,191 nM,,,
NC1(C(=O)N[C@@H](CCO)c2ccc(Cl)cc2)CCN(c2nc[nH]c3nccc2-3)CC1 [CAPIVASERTIB],,,5200 nM,178 nM,
Cn1ncc(Cl)c1-c1cc(C(=O)N[C@@H]2CN[C@H](CCN3CCC(O)CC3)C[C@H]2c2ccc(Cl)c(Cl)c2)oc1Cl,15900 nM,5.99 nM,13700 nM,1140 nM,12%
Cn1ncc(Br)c1-c1oc(C(=O)N[C@@H]2CNCC[C@H]2c2ccc(Cl)cc2)cc1Br,4540 nM,29.8 nM,10800 nM,,
Cn1ncc(Cl)c1-c1cc(C(=O)N[C@@H]2CN[C@H](CCN3CCCCC3)C[C@H]2c2ccc(Cl)c(Cl)c2)oc1Cl,1660 nM,5.65 nM,1020 nM,1780 nM,93.1%
Cn1ncc(Br)c1-c1ccc(C(=O)N[C@@H]2CNCC[C@H]2c2ccc(F)c(F)c2)cn1,6150 nM,270 nM,26900 nM,,
Cn1ncc(Cl)c1-c1cc(C(=O)N[C@@H]2CN[C@H](CC(=O)NCC(O)CO)C[C@H]2c2ccc(Cl)c(Cl)c2)oc1Cl (stereo not given in full),5900 nM,3.13 nM,7090 nM,660 nM,
Cn1ncc(Br)c1-c1ccc(C(=O)N[C@@H]2CNCC[C@H]2c2cccc(F)c2)nc1,1920 nM,182 nM,6250 nM,,
Cn1ncc(Cl)c1-c1cc(C(=O)N[C@@H]2CNCC[C@H]2c2ccc(Cl)cc2)n(C)c1Cl,12400 nM,149 nM,7330 nM,,

Compound,IC50 (OVCAR-8),IC50 [1],IC50 (HCT-116),IC50 (LNCaP),inhibition at 3 µM (hERG (KCNH2))
Cn1ncc(Cl)c1-c1cc(C(=O)N[C@@H]2CNCC[C@H]2c2ccc(Cl)cc2)sc1Cl,2510 nM,449 nM,2440 nM,,
Cn1ncc(Cl)c1-c1cc(C(=O)N[C@@H]2CNCC[C@H]2c2ccc(F)c(F)c2)sc1Cl,3510 nM,222 nM,2810 nM,,
Cn1cc(-c2coc(C(=O)N[C@@H]3CNCC[C@H]3c3ccc(Cl)cc3)c2)cn1,10000 nM,> 1000 nM,23600 nM,,
CC(=O)OCC[C@@H]1C[C@@H](c2ccc(F)c(F)c2)[C@H](NC(=O)c2cc(-c3c(Cl)cnn3C)c(Cl)o2)CN1,4960 nM,3.4 nM,690 nM,,
Cn1ncc(Cl)c1-c1cc(C(=O)NC2CNCCC2c2ccc(F)c(F)c2)oc1Cl (racemic),,6.4 nM,,,
Cn1ncc(Cl)c1-c1cc(C(=O)N[C@@H]2CNCC[C@H]2c2ccc(Cl)c(C(F)(F)F)c2)sc1Cl,1150 nM,322 nM,1750 nM,,
Cn1ncc(Cl)c1-c1cc(C(=O)N[C@@H]2CNCC[C@H]2c2ccc(C(F)(F)F)cc2)oc1Cl,120 nM,9.3 nM,280 nM,,
Cn1ncc(Cl)c1-c1cc(C(=O)NC2CNCC2c2ccc(C(F)(F)F)cc2)oc1Cl (stereo not given),,538 nM,,,
Cn1ncc(Cl)c1-c1cc(C(=O)N[C@@H]2CN[C@H](CCN3CCCC3)C[C@H]2c2ccc(Cl)c(Cl)c2)oc1Cl,1840 nM,6.41 nM,1940 nM,1920 nM,
COCC[C@@H]1C[C@@H](c2ccc(Cl)c(Cl)c2)[C@H](NC(=O)c2cc(-c3c(Cl)cnn3C)c(Cl)o2)CN1,1060 nM,7.01 nM,470 nM,250 nM,
Cn1nccc1-c1ccc(C(=O)N[C@@H]2CNCC[C@H]2c2ccc(Cl)cc2)o1,6090 nM,230 nM,9560 nM,,
Cn1ncc(Cl)c1-c1ccc(C(=O)N[C@@H]2CNCC[C@H]2c2ccc(Cl)cc2)o1,4280 nM,13.7 nM,2560 nM,,
Cn1ncc(Br)c1-c1ccc(C(=O)N[C@@H]2CNCC[C@H]2c2ccc(Cl)cc2)o1,3680 nM,31.2 nM,3760 nM,,
Cn1cc(-c2ccc(C(=O)N[C@@H]3CNCC[C@H]3c3ccc(Cl)cc3)o2)cn1,4410 nM,> 1000 nM,15100 nM,,
Cn1nccc1-c1csc(C(=O)N[C@@H]2CNCC[C@H]2c2ccc(Cl)cc2)c1,12600 nM,188 nM,8510 nM,,
Cn1cc(-c2c(Br)cnn2C)cc1C(=O)N[C@@H]1CNCC[C@H]1c1ccc(Cl)cc1,3030 nM,255 nM,8700 nM,,63.8%
Cn1nccc1-c1coc(C(=O)NC2CNCCC2c2ccccc2)c1 (stereo not given),,710 nM,,,
Cn1nccc1-c1ccc(C(=O)N[C@@H]2CNCC[C@H]2c2cccc(F)c2)nc1,7400 nM,76.6 nM,5630 nM,,
Cn1nccc1-c1oc(C(=O)N[C@@H]2CNCC[C@H]2c2ccc(Cl)cc2)cc1Br,15000 nM,162 nM,13700 nM,,
Cn1nccc1-c1ccc(C(=O)N[C@@H]2CNCC[C@H]2c2ccc(F)c(F)c2)cc1,5330 nM,21.6 nM,3720 nM,,25%
